According to patent US10954231B2, “Anxiolytic compounds” (Bionomics Limited, priority 2006, dated 2021):

Columns and labels:
Type in all cases: in vivo
mice [1] = assay: Light dark test; details: oral, 60 min before test; for LD: significant anxiolytic effect (number of significant parameters): parameters: time spent in lit area, transitions into lit area, total walked distance in lit area; for minimal effective dose at 20 mg/kg: Mus musculus, 1 h, for examples marked * 20 mg/kg is the only dose tested, read-out: LD: minimum effective dose
From the text: The light dark paradigm is based on a conflict between the innate aversion of rodents to brightly illuminated areas and on the spontaneous exploratory behaviour of the mice. If given a choice between a large brightly compartment versus a small dark compartment they spontaneously prefer the dark part.
The apparatus consists of two PVC (polyvinylchloride) boxes (19×19×15 cm) covered with Plexiglas. One of these boxes is darkened. The other box is illuminated by 100 W desk lamp placed 15 cm above and providing an illumination of about 4400 Lux. An opaque plastic tunnel (5×7×10 cm) separates the dark box from the illuminated one.
Animals were placed individually in the lit box, with head directed towards the tunnel. The time spent in the lit box and the number of transitions between the two boxes was recorded over a 5 min period after the first entry of the animal in the dark box. The total walked distance in the lit box was also recorded. Animals scored without entry into the […] were excluded from the analysis.
The compounds in Table 1 were tested in the light-dark test (indicated in the LD column). +=a significant anxiolytic effect in one of the three parameters measured in the LD model, ++ represents a significant effect in 2 parameters and +++ is significance in all three. The parameters are: time spent in the lit area, number of transitions into the lit area, or total walked distance in the lit area.
The test compound was prepared in 5% PEG400-0.9% NaCl.
(§1) It was administrated orally, 60 minutes before the implementation of the test.

mice [2] = assay: Open field (dark), spontaneous motor activity; design: key to OF: sedation: NS: no sedation; S: sedation; details: oral, 60 min before test; for OF: sedation: 20 min recording; for OF: maximum non-sedating dose: for examples marked * 20 mg/kg is the only dose tested
From the text: The open field (dark) is used to measure the spontaneous motor activity of mice in a quiet, dark environment. This system is useful for discriminating the sedating or stimulating properties of test compounds on spontaneous locomotion and can thus provide a preliminary indication of potentially adverse effects such as sedation.
The apparatus is an open plexiglass cage (52×52 cm) with 40 cm walls. The animal's movements are tracked by a computerised video tracking system, consisting of an overhead camera, diode sensors placed underneath the floor of the cage, computer and video analyser software (ViewPoint, France). The video camera is placed at 2.50 m above the cage and connected to the computer via a video capture card (Pinnacle Systems, France). The video tracking system is set in a way that the floor of the OF is divided into nine equal squares. The total number of crossed squares and the total walked distance are recorded.
Each animal is singly placed in a corner of the apparatus and its locomotor activity is automatically recorded over a period of 20 minutes.
The apparatus is cleaned between each animal with alcohol (70%).
The below items were tested in the Open Field as indicated by an entry in the OF column. NS=no sedation; S=sedation. The maximum non-sedating dose in mg/kg is shown.
Test compound was prepared in 5% PEG400−0.9% NaCl. It was administered orally, 60 minutes before the implementation of the test.

mice [3] = assay: Marble burying test; details: oral, 60 min before test, 20 min session
From the text: The Marble Burying test is used as a model for both anxiety and obsessive compulsive disorders. Mice have a natural tendency to bury marbles under the bedding when placed in a cage with rows of evenly spaced marbles on the floor. Suppression of this spontaneous burying has been used as a measure of anxiolytic drug action. Mice pre-treated with benzodiazepines and different classes of antidepressants bury less marbles when compared to the control mice
The apparatus consists of transparent polycarbonate cages (30 cm×18 cm×19 cm) containing a 5 cm layer of fine sawdust bedding and 20 glass marbles (diameter: 1.5 cm) spaced evenly along the walls of the cage. Each animal is placed individually in the cage where it remains for a 20 min test session. On termination of the test session the animals are removed from the cage and the number of marbles at least two-thirds buried in the sawdust is recorded.
Example 1 was tested in the Marble Burying model. The minimum effective dose in mg/kg is indicated in the MB column in Table 1.
The test compound was prepared in 5% PEG400−0.9% NaCl.
as §1

rat = assay: Elevated plus maze; design: key to EPM rat: significant anxiolytic effect (number of significant parameters): +: a significant anxiolytic effect in one of the three parameters measured in the LD model; ++: represents a significant effect in 2 parameters; +++: is significance in all three; details: oral, 60 min before test

| SMILES | LD: significant anxiolytic effect (number of significant parameters) (mice [1]) | minimal effective dose at 20 mg/kg (mice [1]) [mg/kg] | OF: sedation (mice [2]) | OF: maximum non-sedating dose (mice [2]) [mg/kg] | MB: minimum effective dose (mice [3]) [mg/kg] | EPM rat: minimum effective dose (rat) [mg/kg] | EPM rat: significant anxiolytic effect (number of significant parameters) (rat; parameters: time spent in open arms, transitions into open arms, total walked distance in open arms) |
| --- | --- | --- | --- | --- | --- | --- | --- |
| CCn1cc(C(=O)N2CCOCC2)c(=O)c2cc(NC3Cc4ccccc4C3)ncc21 [Example 3, morpholino 6-(2,3-dihydro-1H-inden-2-ylamino)-1-ethyl-1,4-dihydro-4-oxo-1,7-naphthyridine-3-carboxamide] | ++ | – | – | – | – | – | – |
| CCn1cc(C(=O)NC2CC2)c(=O)c2cc(NC3Cc4ccccc4C3)cnc21 [Example 5, Cyclopropylamino 6-(2,3-dihydro-1H-inden-2-ylamino)-1-ethyl-1,4-dihydro-4-oxo-1,8-naphthyridine-3-carboxamide] | + | 20 | – | – | – | – | – |
| CCOC(=O)c1cn(CC)c2ncc(NC(=O)c3cc(OC)c(OC)c(OC)c3)cc2c1=O [Example 7, Ethyl 6-(3,4,5-trimethoxybenzoylamide)-1-ethyl-1,4-dihydro-4-oxo-1,8-naphthyridine-3-carboxylate] | ++ | 20 | S | 20 | – | – | – |
| CCOC(=O)c1cn(CC)c2ncc(NC(=O)C(C)C)cc2c1=O [Example 10, Ethyl 6-(isobutyrylamide)-1-ethyl-1,4-dihydro-4-oxo-1,8-naphthyridine-3-carboxylate] | +++ | 20 | NS | 20 | – | – | – |
| CCn1cc(C(=O)Nc2ccc(-c3ccccc3)cc2)c(=O)c2cc(NC3Cc4ccccc4C3)cnc21 [Example 9, 4-biphenylamino-6-(2,3-dihydro-1H-inden-2-ylamino)-1-ethyl-1,4-dihydro-4-oxo-1,8-naphthyridine-3-carboxamide] | +++ | 20 | NS | 20 | – | – | – |
| CCn1cc(C(=O)N2CCN(C)CC2)c(=O)c2cc(NC3Cc4ccccc4C3)cnc21 [Example 4, Methylpiperazino 6-(2,3-dihydro-1H-inden-2-ylamino)-1-ethyl-1,4-dihydro-4-oxo-1,8-naphthyridine-3-carboxamide] | ++ | 20 | – | – | – | – | – |
| CCN(CC)C(=O)c1cn(CC)c2ncc(NC3Cc4ccccc4C3)cc2c1=O [Example 6] | ++ | 20 | NS | 20 | – | – | – |
| CCn1cc(C(=O)Nc2ccc(F)cc2)c(=O)c2cc(NC3Cc4ccccc4C3)cnc21 [Example 8] | ++ | 20 | NS | 20 | – | – | – |
| CCn1cc(C(=O)N2CCOCC2)c(=O)c2cc(NC3Cc4ccccc4C3)cnc21 [Example 1, Morpholino 6-(2,3-dihydro-1H-inden-2-yl)amino-1-ethyl-1,4-dihydro-4-oxo-1,8-naphthyridine-3-carboxamide] | ++ | – | NS | 100 | 1 | 0.1 | +++ |
| CCn1cc(C(=O)N2CCOCC2)c(=O)c2nc(NC3Cc4ccccc4C3)ccc21 [Example 2, Morpholino 6-(2,3-dihydro-1H-inden-2-ylamino)-1-ethyl-1,4-dihydro-4-oxo-1,5-naphthyridine-3-carboxamide] | +++ | 30 | S | 5 | – | – | – |
